Counter-ions that a name gives are not always drawn. Like-named read-outs stand apart in the source and are kept apart here.
How the values were obtained:
serotonin 2 receptor = serotonin 2 receptor (Rattus norvegicus, UniProt P14842); experiment: Binding test on [3H] ketanserin (serotonin 2 receptor)
serotonin 1A receptor = target: T1, serotonin 1A receptor (Rattus norvegicus, UniProt P19327); experiment: Binding test on [3H] 8-hydroxy-dipropylaminotetralin (serotonin 1A receptor); conditions: [3H] 8-OH-DPAT 0.5 nM, receptor fraction of rat hippocampus; read-out: 5HT1a
T1 construct: To the receptor fraction of the hippocampus were added a test compound and 0.5 nM of [^3H]; 8-hydroxy-dipropylaminotetralin; from tissue; host or cells: SD rat hippocampus, membrane (receptor) fraction
T1 sequence (P19327 1-422): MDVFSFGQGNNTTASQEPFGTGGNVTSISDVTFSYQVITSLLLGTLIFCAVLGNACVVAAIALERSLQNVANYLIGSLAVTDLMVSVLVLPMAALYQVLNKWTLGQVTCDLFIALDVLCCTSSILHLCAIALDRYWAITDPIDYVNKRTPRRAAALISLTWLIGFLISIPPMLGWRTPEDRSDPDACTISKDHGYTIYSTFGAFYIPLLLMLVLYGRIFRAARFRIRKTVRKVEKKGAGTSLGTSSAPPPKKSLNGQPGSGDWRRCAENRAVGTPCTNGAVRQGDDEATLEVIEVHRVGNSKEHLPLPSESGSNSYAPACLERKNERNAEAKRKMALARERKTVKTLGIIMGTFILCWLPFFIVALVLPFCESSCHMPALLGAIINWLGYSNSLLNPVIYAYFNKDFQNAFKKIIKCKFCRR

α1 adrenalin receptor = experiment: Binding test on [3H] prazosin (α1 adrenalin receptor); parameters: species or system rat
[1] = [3H] ketanserin 0.3 nM, receptor fraction of rat cerebral cortex, read-out: 5HT2
[2] = [3H] prazosin about 0.2 nM, receptor fraction of rat cerebral cortex

Chain of serotonin 2 receptor (P14842 whole entry): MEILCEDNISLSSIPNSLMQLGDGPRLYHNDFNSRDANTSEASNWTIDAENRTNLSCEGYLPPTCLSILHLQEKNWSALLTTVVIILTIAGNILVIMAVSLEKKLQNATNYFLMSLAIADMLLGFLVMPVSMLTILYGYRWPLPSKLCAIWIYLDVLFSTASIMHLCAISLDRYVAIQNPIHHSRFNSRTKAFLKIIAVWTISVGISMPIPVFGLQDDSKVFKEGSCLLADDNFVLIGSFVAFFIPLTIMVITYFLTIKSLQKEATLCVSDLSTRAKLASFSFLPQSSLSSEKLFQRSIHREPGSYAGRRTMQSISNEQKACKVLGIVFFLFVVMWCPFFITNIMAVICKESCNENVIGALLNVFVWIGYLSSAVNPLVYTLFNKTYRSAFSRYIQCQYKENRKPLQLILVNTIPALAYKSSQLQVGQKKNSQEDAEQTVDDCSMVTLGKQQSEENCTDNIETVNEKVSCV

Ki (serotonin 2 receptor; [1]) [nM]	Ki (serotonin 1A receptor) [nM]	Ki (α1 adrenalin receptor; [2]) [nM]	Structure (SMILES)	Ki (serotonin 2 receptor) [nM]	Ki (α1 adrenalin receptor) [nM]
> 20	> 20	206	CC(=O)NCc1ccc2c(CO)cn(C3CCN(CCc4ccc(F)cc4)CC3)c2c1 [Example 372, 1-[1-(4-fluorophenethyl)piperidin-4-yl]-3-hydroxymethyl-6-acetamidomethylindole]		
1.25	9.65	30.3	O=C(CCN1CCCCC1)NCc1ccc2ccn(C3CCN(CCc4ccc(F)cc4)CC3)c2c1 [Example 379, 1-[1-(4-fluorophenethyl)piperidin-4-yl]-6-[3-(piperidin-1-yl)propionylamino]methylindole]		
> 20	0.27	77.4	CNCc1ccc2ccn(C3CCN(CCc4ccc(F)cc4)CC3)c2c1 [Example 361, 1-[1-(4-fluorophenethyl)piperidin-4-yl]-6-N-methylaminomethylindole]		
2.41	2.06	149	O=C(CCCO)NCc1ccc2ccn(C3CCN(CCc4ccc(F)cc4)CC3)c2c1 [Example 329, 1-[1-(4-fluorophenethyl)piperidin-4-yl]-6-(4-hydroxybutyroylamidomethyl)indole Oxalate]		
> 20	5.38	26.2	CC(=O)NCc1ccc2ccn(C3CCN(CCc4cccnc4)CC3)c2c1 [Example 386, 1-{1-[2-(3-Pyridyl)ethyl]piperidin-4-yl}-6-acetamidomethylindole]		
3.37	1.56	61.4	CN(C)CC(=O)NCc1ccc2ccn(C3CCN(CCc4ccc(F)cc4)CC3)c2c1 [Example 375, 1-[1-(4-fluorophenethyl)piperidin-4-yl]-6-(N,N-dimethylaminoacetamido)methylindole]		
0.67	2.08	47.6	O=C(Cc1ccc2ccn(C3CCN(CCc4ccc(F)cc4)CC3)c2c1)NCc1ccccn1 [Example 341, 1-[1-(4-fluorophenethyl)piperidin-4-yl]-6-(pyridin-2-yl)methylcarbamoylmethylindole Oxalate]		
7.39	0.71	75.9	CC(=O)N(C)Cc1ccc2ccn(C3CCN(CCc4ccc(F)cc4)CC3)c2c1 [Example 359, 1-[1-(4-fluorophenethyl)piperidin-4-yl]-6-N-methylacetamidomethylindole]		
24.5	0.56	42.5	CCC(O)c1ccc2ccn(C3CCN(CCc4ccc(F)cc4)CC3)c2c1 (stereo not drawn) [Example 319, 1-[1-(4-fluorophenethyl)piperidin-4-yl]-6-(1-hydroxyproyl)indole Oxalate]		
2.1	0.91	46.7	O=C(CN1CCCCC1)NCc1ccc2ccn(C3CCN(CCc4ccc(F)cc4)CC3)c2c1 [Example 376, 1-[1-(4-fluorophenethyl)piperidin-4-yl]-6-[(piperidin-1-yl)acetamido]methylindole]		
14	0.73	41.8	O=C1CCCN1Cc1ccc2ccn(C3CCN(CCc4ccc(F)cc4)CC3)c2c1 [Example 358, 1-[1-(4-fluorophenethyl)piperidin-4-yl]-6-(2-pyrrolidon-1-yl)methylindole]		
> 20	63.5	26.2	CC(=O)NCc1ccc2c(C#N)cn(C3CCN(CCc4ccc(F)cc4)CC3)c2c1 [Example 387, 3-cyano-1-[1-(4-fluorophenethyl)piperidin-4-yl]-6-acetamidomethylindole]		

The next lines start with the compound.

Structure (SMILES)	Ki (serotonin 2 receptor; [1]) [nM]	Ki (serotonin 1A receptor) [nM]	Ki (α1 adrenalin receptor; [2]) [nM]	Ki (serotonin 2 receptor) [nM]	Ki (α1 adrenalin receptor) [nM]
O=C(Cc1ccc2ccn(C3CCN(CCc4ccc(F)cc4)CC3)c2c1)NCc1ccncc1 [Example 314, 1-[1-(4-fluorophenethyl)piperidin-4-yl]-6-(pyridin-4-yl)methylcarbamoylmethylindole]	1.1	0.72	51.3		
COc1ccc(C(O)c2ccc3ccn(C4CCN(CCc5ccc(F)cc5)CC4)c3c2)cn1 (stereo not drawn) [Example 318, 1-[1-(4-fluorophenethyl)piperidin-4-yl]-6-[(2-methoxypyridin-5-yl)hydroxymethyl]indole Oxalate]	8.3	1.49	46.6		
CC(=O)NCc1ccc2ccn(C3CCN(CCc4ccc(C(C)O)cc4)CC3)c2c1 (stereo not drawn) [Example 388, 1-{4-[(1-hydroxyethyl)phenethyl]piperidin-4-yl}-6-acetamidomethylindole]	> 20	2.26	366		
CC(=O)N1CCC(CNC(=O)Cc2ccc3ccn(C4CCN(CCc5ccc(F)cc5)CC4)c3c2)CC1 [Example 343, Oxalate]		1.54	38.1	1.64	
CN(c1ccc2ccn(C3CCN(CCc4ccc(F)cc4)CC3)c2c1)S(C)(=O)=O [Example 335]		0.22	28.4	> 20	
O=C(CF)NCc1ccc2ccn(C3CCN(CCc4ccccc4F)CC3)c2c1 [Example 381, 1-[1-(2-fluorophenethyl)piperidin-4-yl]-6-fluoroacetamidomethylindole]	2.02	1.37	101		
c1ccc2c(c1)CCN2C1CCN(CC2COc3ccccc3O2)CC1 (stereo not drawn) [Example 77, 1-{1-[(1,4-benzodioxan-2-yl)methyl]piperidin-4-yl}indoline]	13.7	44.5	249		
COc1ccc2c(c1)N(C1CCN(CCc3ccc(F)cc3)C1)CC2 (stereo not drawn) [Example 292, 1-[1-(4-fluorophenethyl)pyrrolidin-3-yl]-6-methoxyindoline]	58.8	92	178		
CNOOSCc1ccc2c(c1)N(C1CCN(CCc3ccc(F)cc3)CC1)CC2 [Example 164, 1-[1-(4-fluorophenethyl)piperidin-4-yl]-6-(N-methylsulfamoylmethyl)indoline]	34.1	0.54	638		
Fc1ccc(CCCN2CCC(N3CCc4ccccc43)CC2)cc1 [Example 13, 1-[1-(4-fluorophenylpropyl)piperidin-4-yl]indoline]	> 200	24.2	188		
O=C(Cc1ccc2ccn(C3CCN(CCc4ccc(F)cc4)CC3)c2c1)NCCN1CCCC1 [Example 312, 1-[1-(4-fluorophenethyl)piperidin-4-yl]-6-[2-(pyrrolidin-1-yl)ethyl]carbamoylmethylindole Oxalate]	0.56	8.27	53.3		
COc1ccc2c(c1)C(N1CCN(CCc3ccc(F)cc3)CC1)CC2 (stereo not drawn) [Example 250, 1-{4-[2-(4-fluorophenyl)ethyl]piperazin-1-yl}-6-methoxyindan Hydrochloride]	18.8	1.6			263
COc1ccc2c(c1)N(C1CCCN(CCc3ccc(F)cc3)CC1)CC2 (stereo not drawn) [Example 291, 1-[1-(4-fluorophenethyl)homopiperidin-4-yl]-6-methoxyindoline]	101	6.9	172		
N#CCNC(=O)Cc1ccc2ccn(C3CCN(CCc4ccc(F)cc4)CC3)c2c1 [Example 308, 1-[1-(4-fluorophenethyl)piperidin-4-yl]-6-cyanomethylcarbamoylmethylindole Oxalate]	3.84	0.73	59.4		
CC(=O)NCc1ccc2c(C=O)cn(C3CCN(CCc4ccc(F)cc4)CC3)c2c1 [Example 370, 1-[1-(4-fluorophenethyl)piperidin-4-yl]-3-formyl-6-acetamidomethylindole]	> 20	> 20	256		
COc1cccc(Cc2ccc3c(c2)N(C2CCN(CCc4ccc(F)cc4)CC2)CC3)n1 [Example 187, 1-[1-(4-fluorophenethyl)piperidin-4-yl]-6-[1-(2-methoxypyridin-6-yl)methyl]indoline]	5.01	65	> 200		
COc1ccc(C(=O)c2ccc3ccn(C4CCN(CCc5ccc(F)cc5)CC4)c3c2)cn1 [Example 317, 1-[1-(4-fluorophenethyl)piperidin-4-yl]-6-(2-methoxypyridin-5-ylcarbonyl)indole Oxalate]	> 20	0.76	400		
CS(=O)(=O)NCc1ccc(CCN2CCC(N3CCc4ccccc43)CC2)cc1 [Example 38, 1-[1-(4-methanesulfonylaminomethylphenethyl)piperidin-4-yl]indoline]	21.8	15	244		
NC(=O)CNC(=O)Cc1ccc2ccn(C3CCN(CCc4ccc(F)cc4)CC3)c2c1 [Example 306, 1-[1-(4-fluorophenethyl)piperidin-4-yl]-6-(carbamoylmethyl)carbamoylmethylindole Oxalate]	3.87	2.82	148		
Fc1ccc(CCN2CCC(N3CCc4ccccc43)CC2)cc1F [Example 11, 1-[1-(3,4-difluorophenethyl)piperidin-4-yl]indoline]	27.9	5.7	147		
CCNC(=O)CCc1ccc2ccn(C3CCN(CCc4ccc(F)cc4)CC3)c2c1 [Example 311, 1-[1-(4-fluorophenethyl)piperidin-4-yl]-6-[2-(ethylcarbamoyl)ethyl]indole Oxalate]	46.4	1.08	85		
